Data taken from US20050123602A1, “Rifalazil formulations” (priority 2003, published 2005).

Experiment: Pharmacokinetics after single peroral administration of 5 mg rifalazil, fed and fasted
Type: in vivo, beagle dogs
Conditions: dogs, liquid-filled vs microgranulated
Protocol: Pharmacokinetic parameters were determined following a single peroral administration of 5 mg of rifalazil in healthy male beagle dogs. The rifalazil was formulated either as a liquid-filled capsule of Example 3 or as a powder-filled capsule containing microgranulated rifalazil as described in U.S. Pat. No. 5,547,683.
Both formulations were administered under fed and fasted conditions. All animals were fasted overnight prior to dosing. Animals designated as “fed” were administered a blended combination of dog chow and water in a 1:3 ratio (e.g. 250 g chow and 750 g water) via oral gavage at a dose volume of 20 mL/kg within approximately 30 minutes prior to dosing and food was provided Ad-libitum after approximately 4 hours following dosing. Animals in “fasted” groups were not fed prior to dosing and food was withheld until after approximately 4 hours after dosing. […]
Pharmacokinetic endpoints and parameters were calculated by noncompartmental analysis (NCA) using WinNonlin®.
The pharmacokinetic parameters Tmax, Cmax, AUCt, AUC∞, T1/2 (elimination), and F (bioavailability) were calculated as well as the coefficient of variation (CV) in each. […]

SMILES: CO[C@H]1/C=C/O[C@@]2(C)Oc3c(C)c(O)c4c(=O)c(c5oc6cc(N7CCN(CC(C)C)CC7)cc(O)c6nc-5c4c3C2=O)NC(=O)/C(C)=C\C=C\[C@H](C)[C@H](O)[C@@H](C)[C@@H](O)[C@@H](C)[C@H](OC(C)=O)[C@@H]1C [rifalazil, Rifalazil]
- effect of changes in the formulation upon elimination half-life (T1/2): no effect
